# According to ChEMBL document CHEMBL3885861, “Open TG-GATES”:
# Species: Rattus norvegicus
# Assay: Open TG-GATES - Regimen: Daily Repeat
# Type: toxicity, organism-based, Sprague-Dawley
# Parameters: regimen Daily Repeat, gender Male, age 6 weeks
# Conditions: in vivo, po, 100 mg/kg, route gavage, dose level High; for APTT / Bas / Eos / Fbg / Hb / Ht / Lym / MCH / MCHC / MCV / Mono / Neu / PT / Plat / RBC / Ret / WBC: tissue Blood; for KIDNEY_L / KIDNEY_R / KIDNEY_TOTAL: tissue Kidney; for LIVER: tissue Liver; for A/G / ALP / ALT / AST / BUN / CRE / Ca / Cl / DBIL / GLC / IP / K / LDH / Na / PL / RALB / TBIL / TC / TG / TP / gamma-GTP: tissue Plasma
smiles,measurement,setting,value
CCCc1cc(=O)[nH]c(=S)[nH]1 [PROPYLTHIOURACIL],TERMINAL_BW,"72 h, time 3 day",209.7 g
same,APTT,"72 h, time 3 day",16 s
same,Bas,"72 h, time 3 day",0%
same,Eos,"72 h, time 3 day",0.8%
same,Fbg,"72 h, time 3 day",238.8 mg/dL
same,Hb,"72 h, time 3 day",13.2 g/dL
same,Ht,"72 h, time 3 day",39.6%
same,Lym,"72 h, time 3 day",80.6%
same,MCH,"72 h, time 3 day",22 pg
same,MCHC,"72 h, time 3 day",33.3%
same,MCV,"72 h, time 3 day",65.9 fL
same,Mono,"72 h, time 3 day",6.4%
same,Neu,"72 h, time 3 day",12.2%
same,PT,"72 h, time 3 day",12.1 s
same,Plat,"72 h, time 3 day",110 x10_4/uL
same,RBC,"72 h, time 3 day",601.4 x10_4/ul
same,Ret,"72 h, time 3 day",7.1%
same,WBC,"72 h, time 3 day",144 x10_2/uL
same,KIDNEY_L,"72 h, time 3 day",0.9 g
same,KIDNEY_R,"72 h, time 3 day",0.9 g
same,KIDNEY_TOTAL,"72 h, time 3 day",1.8 g
same,LIVER,"72 h, time 3 day",12.2 g
same,A/G,"72 h, time 3 day",1.7
same,ALP,"72 h, time 3 day",870.8 IU/L
same,ALT,"72 h, time 3 day",36.4 IU/L
same,AST,"72 h, time 3 day",60.4 IU/L
same,BUN,"72 h, time 3 day",20.2 mg/dL
same,CRE,"72 h, time 3 day",0.5 mg/dL
same,Ca,"72 h, time 3 day",11.5 mg/dL
same,Cl,"72 h, time 3 day",105.4 meq/L
same,DBIL,"72 h, time 3 day",0.008 mg/dL
same,GLC,"72 h, time 3 day",191.6 mg/dL
same,IP,"72 h, time 3 day",7.1 mg/dL
same,K,"72 h, time 3 day",4.5 meq/L
same,LDH,"72 h, time 3 day",181.2 IU/L
same,Na,"72 h, time 3 day",138.6 meq/L
same,PL,"72 h, time 3 day",199.6 mg/dL
same,RALB,"72 h, time 3 day",3.8 g/dL
same,TBIL,"72 h, time 3 day",0.3 mg/dL
same,TC,"72 h, time 3 day",116.2 mg/dL
same,TG,"72 h, time 3 day",94.2 mg/dL
same,TP,"72 h, time 3 day",6.1 g/dL
same,gamma-GTP,"72 h, time 3 day",1 IU/L
same,TERMINAL_BW,"[…], time 7 day",223.8 g
same,TERMINAL_BW,"[…], time 14 day",241.1 g
same,TERMINAL_BW,"[…], time 28 day",232 g
same,APTT,"[…], time 7 day",15.8 s
same,Bas,"[…], time 7 day",0%
same,Eos,"[…], time 7 day",1%
same,Fbg,"[…], time 7 day",239.2 mg/dL
same,Hb,"[…], time 7 day",13.7 g/dL
same,Ht,"[…], time 7 day",41.4%
same,Lym,"[…], time 7 day",81.2%
same,MCH,"[…], time 7 day",20.9 pg
same,MCHC,"[…], time 7 day",33.1%
same,MCV,"[…], time 7 day",63.2 fL
same,Mono,"[…], time 7 day",5.4%
same,Neu,"[…], time 7 day",12.4%
same,PT,"[…], time 7 day",13 s
same,Plat,"[…], time 7 day",113.5 x10_4/uL
same,RBC,"[…], time 7 day",655.4 x10_4/ul
same,Ret,"[…], time 7 day",3.8%
same,WBC,"[…], time 7 day",123.8 x10_2/uL
same,APTT,"[…], time 14 day",17 s
same,Bas,"[…], time 14 day",0%
same,Eos,"[…], time 14 day",0%
same,Fbg,"[…], time 14 day",189.4 mg/dL
same,Hb,"[…], time 14 day",14 g/dL
same,Ht,"[…], time 14 day",41.9%
same,Lym,"[…], time 14 day",79.4%
same,MCH,"[…], time 14 day",20.3 pg
same,MCHC,"[…], time 14 day",33.3%
same,MCV,"[…], time 14 day",61.1 fL
same,Mono,"[…], time 14 day",6.2%
same,Neu,"[…], time 14 day",14.4%
same,PT,"[…], time 14 day",13.9 s
same,Plat,"[…], time 14 day",93.2 x10_4/uL
same,RBC,"[…], time 14 day",686.2 x10_4/ul
same,Ret,"[…], time 14 day",1.6%
same,WBC,"[…], time 14 day",99.7 x10_2/uL
same,APTT,"[…], time 28 day",15.3 s
same,Bas,"[…], time 28 day",0%
same,Eos,"[…], time 28 day",0.8%
same,Fbg,"[…], time 28 day",180.4 mg/dL
same,Hb,"[…], time 28 day",15.5 g/dL
same,Ht,"[…], time 28 day",45.8%
same,Lym,"[…], time 28 day",84.6%
same,MCH,"[…], time 28 day",19.6 pg
same,MCHC,"[…], time 28 day",33.8%
same,MCV,"[…], time 28 day",57.9 fL
same,Mono,"[…], time 28 day",4.8%
same,Neu,"[…], time 28 day",9.8%
same,PT,"[…], time 28 day",14.8 s
same,Plat,"[…], time 28 day",86 x10_4/uL
same,RBC,"[…], time 28 day",791.8 x10_4/ul
same,Ret,"[…], time 28 day",0.7%
same,WBC,"[…], time 28 day",66.5 x10_2/uL
same,KIDNEY_L,"[…], time 7 day",0.9 g
same,KIDNEY_R,"[…], time 7 day",0.9 g
same,KIDNEY_TOTAL,"[…], time 7 day",1.8 g
same,KIDNEY_L,"[…], time 14 day",0.9 g
same,KIDNEY_R,"[…], time 14 day",0.9 g
same,KIDNEY_TOTAL,"[…], time 14 day",1.9 g
same,KIDNEY_L,"[…], time 28 day",0.8 g
same,KIDNEY_R,"[…], time 28 day",0.8 g
same,KIDNEY_TOTAL,"[…], time 28 day",1.6 g
same,LIVER,"[…], time 7 day",12.7 g
same,LIVER,"[…], time 14 day",12 g
same,LIVER,"[…], time 28 day",9.8 g
same,A/G,"[…], time 7 day",1.8
same,ALP,"[…], time 7 day",839.6 IU/L
same,ALT,"[…], time 7 day",29.6 IU/L
same,AST,"[…], time 7 day",57.8 IU/L
same,BUN,"[…], time 7 day",20.6 mg/dL
same,CRE,"[…], time 7 day",0.5 mg/dL
same,Ca,"[…], time 7 day",11.5 mg/dL
same,Cl,"[…], time 7 day",106.8 meq/L
same,DBIL,"[…], time 7 day",0.016 mg/dL
same,GLC,"[…], time 7 day",172 mg/dL
same,IP,"[…], time 7 day",6.8 mg/dL
same,K,"[…], time 7 day",4.5 meq/L
same,LDH,"[…], time 7 day",161.4 IU/L
same,Na,"[…], time 7 day",140.2 meq/L
same,PL,"[…], time 7 day",166.6 mg/dL
same,RALB,"[…], time 7 day",4.3 g/dL
same,TBIL,"[…], time 7 day",0.3 mg/dL
same,TC,"[…], time 7 day",101.6 mg/dL
same,TG,"[…], time 7 day",79.6 mg/dL
same,TP,"[…], time 7 day",6.7 g/dL
same,gamma-GTP,"[…], time 7 day",1.2 IU/L
same,A/G,"[…], time 14 day",1.8
same,ALP,"[…], time 14 day",489.4 IU/L
same,ALT,"[…], time 14 day",27.8 IU/L
same,AST,"[…], time 14 day",56.4 IU/L
same,BUN,"[…], time 14 day",23.4 mg/dL
same,CRE,"[…], time 14 day",0.7 mg/dL
same,Ca,"[…], time 14 day",11.4 mg/dL
same,Cl,"[…], time 14 day",107.4 meq/L
same,DBIL,"[…], time 14 day",0.016 mg/dL
same,GLC,"[…], time 14 day",176.4 mg/dL
same,IP,"[…], time 14 day",6.3 mg/dL
same,K,"[…], time 14 day",4 meq/L
same,LDH,"[…], time 14 day",152.8 IU/L
same,Na,"[…], time 14 day",141.8 meq/L
same,PL,"[…], time 14 day",144.8 mg/dL
same,RALB,"[…], time 14 day",4.4 g/dL
same,TBIL,"[…], time 14 day",0.2 mg/dL
same,TC,"[…], time 14 day",94.2 mg/dL
same,TG,"[…], time 14 day",32.6 mg/dL
same,TP,"[…], time 14 day",7 g/dL
same,gamma-GTP,"[…], time 14 day",1.6 IU/L
same,A/G,"[…], time 28 day",2
same,ALP,"[…], time 28 day",528 IU/L
same,ALT,"[…], time 28 day",34 IU/L
same,AST,"[…], time 28 day",65.4 IU/L
same,BUN,"[…], time 28 day",26.8 mg/dL
same,CRE,"[…], time 28 day",0.7 mg/dL
same,Ca,"[…], time 28 day",10.8 mg/dL
same,Cl,"[…], time 28 day",108 meq/L
same,DBIL,"[…], time 28 day",0.054 mg/dL
same,GLC,"[…], time 28 day",162 mg/dL
same,IP,"[…], time 28 day",5.5 mg/dL
same,K,"[…], time 28 day",4.1 meq/L
same,LDH,"[…], time 28 day",121.8 IU/L
same,Na,"[…], time 28 day",143.6 meq/L
same,PL,"[…], time 28 day",153 mg/dL
same,RALB,"[…], time 28 day",4.5 g/dL
same,TBIL,"[…], time 28 day",0.2 mg/dL
same,TC,"[…], time 28 day",101.2 mg/dL
same,TG,"[…], time 28 day",34.6 mg/dL
same,TP,"[…], time 28 day",6.8 g/dL
same,gamma-GTP,"[…], time 28 day",2.8 IU/L
